This experiment deals with murine Head Twitch Response. The experiment is described as follows: murine Head Twitch Response (HTR). The following applies: Mus musculus, read-out: HTR ED50.

Structures are written as SMILES.

`CN(C)CCc1c[nH]c2cccc(O)c12` [Psilocin]: the ED50 was 0.54 µmol/kg. For `CN(C)CCc1c[nH]c2cccc(OP(=O)(O)O)c12` [Psilocybin], the median effective dose (ED50) stood at 1.02 µmol/kg.

For orientation: ED50 means the dose that gives a 50% effect, or the effect in half of the subjects.

Source of the values: patent US12343328B2, “Dialkyl tryptamines and their therapeutic uses” (CAAMTECH, INC., priority 2020, dated 2025).
